From US10233191B2, “Fused piperidine amides as modulators of ion channels” (Vertex Pharmaceuticals Incorporated, priority 2013, dated 2019)

Biological target: T1, NaV 1.7 (Homo sapiens, UniProt Q15858)
T1 construct: expressed in transfected cells; host or cells: HEK cells
Experiment: E-VIPR optical membrane potential assay with electrical stimulation
Type: cell-based
Conditions: active against one or more sodium channels; assay/subtype not specified in Table 4; read-out: IC50 Binned Activity Data
Outline: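 HEK cells expressing human NaV1.7, loaded with CC2-DMPE/DiSBAC6(3) FRET dyes, then exposed to compounds for 20-35 min at room temperature (0.625% DMSO). Electrical stimulation applied for 9 s with 400 Hz scanning. Read-out is the background-subtracted 460/580 nm emission ratio, normalized.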

T1 sequence (Q15858 whole entry): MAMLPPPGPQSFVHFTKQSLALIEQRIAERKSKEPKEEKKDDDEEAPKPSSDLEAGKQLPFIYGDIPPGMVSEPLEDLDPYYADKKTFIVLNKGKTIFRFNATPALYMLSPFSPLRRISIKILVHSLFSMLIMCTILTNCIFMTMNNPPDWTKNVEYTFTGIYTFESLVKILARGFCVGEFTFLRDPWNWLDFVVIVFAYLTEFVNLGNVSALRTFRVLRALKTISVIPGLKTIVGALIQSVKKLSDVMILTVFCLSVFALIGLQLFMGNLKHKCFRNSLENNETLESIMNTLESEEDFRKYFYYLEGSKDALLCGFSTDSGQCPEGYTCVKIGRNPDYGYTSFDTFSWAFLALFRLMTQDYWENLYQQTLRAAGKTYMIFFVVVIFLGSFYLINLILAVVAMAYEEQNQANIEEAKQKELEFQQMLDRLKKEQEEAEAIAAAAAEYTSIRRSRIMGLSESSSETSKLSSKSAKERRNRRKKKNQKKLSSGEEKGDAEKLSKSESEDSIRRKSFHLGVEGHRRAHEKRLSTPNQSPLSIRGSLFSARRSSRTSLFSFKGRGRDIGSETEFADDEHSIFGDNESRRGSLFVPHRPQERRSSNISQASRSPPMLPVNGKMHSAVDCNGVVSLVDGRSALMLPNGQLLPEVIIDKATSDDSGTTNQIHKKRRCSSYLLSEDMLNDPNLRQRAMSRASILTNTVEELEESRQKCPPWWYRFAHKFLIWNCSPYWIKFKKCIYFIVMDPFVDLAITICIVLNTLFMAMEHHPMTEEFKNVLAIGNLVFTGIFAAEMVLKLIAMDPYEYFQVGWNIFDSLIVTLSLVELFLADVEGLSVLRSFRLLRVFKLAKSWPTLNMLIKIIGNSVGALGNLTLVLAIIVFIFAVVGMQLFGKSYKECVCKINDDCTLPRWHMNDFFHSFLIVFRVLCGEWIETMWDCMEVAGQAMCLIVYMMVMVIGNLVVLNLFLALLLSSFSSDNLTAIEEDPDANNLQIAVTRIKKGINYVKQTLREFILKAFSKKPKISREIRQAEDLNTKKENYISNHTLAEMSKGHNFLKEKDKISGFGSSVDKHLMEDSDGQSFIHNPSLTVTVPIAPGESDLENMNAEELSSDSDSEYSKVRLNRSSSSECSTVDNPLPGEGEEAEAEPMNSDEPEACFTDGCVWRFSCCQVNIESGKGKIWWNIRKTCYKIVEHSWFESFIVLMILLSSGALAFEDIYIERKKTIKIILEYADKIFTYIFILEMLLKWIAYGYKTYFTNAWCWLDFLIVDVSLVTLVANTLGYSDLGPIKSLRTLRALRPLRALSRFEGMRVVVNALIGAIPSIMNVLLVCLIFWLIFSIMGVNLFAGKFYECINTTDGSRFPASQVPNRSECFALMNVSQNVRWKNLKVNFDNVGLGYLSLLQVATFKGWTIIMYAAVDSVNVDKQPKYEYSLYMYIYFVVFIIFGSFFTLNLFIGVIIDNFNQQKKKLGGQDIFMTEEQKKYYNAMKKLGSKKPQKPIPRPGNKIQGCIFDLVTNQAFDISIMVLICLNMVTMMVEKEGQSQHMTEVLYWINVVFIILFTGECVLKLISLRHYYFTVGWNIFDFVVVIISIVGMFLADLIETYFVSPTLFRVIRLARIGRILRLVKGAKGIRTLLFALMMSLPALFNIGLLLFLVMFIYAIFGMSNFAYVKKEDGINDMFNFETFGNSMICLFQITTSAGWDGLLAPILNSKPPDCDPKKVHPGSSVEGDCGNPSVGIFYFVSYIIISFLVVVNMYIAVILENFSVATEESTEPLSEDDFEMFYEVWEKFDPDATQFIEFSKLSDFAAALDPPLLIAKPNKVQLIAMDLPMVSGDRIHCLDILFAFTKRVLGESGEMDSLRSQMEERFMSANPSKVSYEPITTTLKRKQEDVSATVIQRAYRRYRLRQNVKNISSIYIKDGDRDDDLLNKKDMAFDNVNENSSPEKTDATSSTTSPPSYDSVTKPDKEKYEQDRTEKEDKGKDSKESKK

SMILES	IC50 [µM]
COc1nc(C(=O)N2CC[C@]3(c4cccc(F)c4)OCOC3C2)ccc1OC1CC=CC1 (some centres unmarked) [Compound 231]	≤ 2
[2H]C1([2H])OC2CN(C(=O)c3ccc(OCC4CCC4)c(OC)n3)CC[C@]2(c2cccc(F)c2)O1 (some centres unmarked) [Compound 284]	≤ 2
Cc1cc(C(=O)N2CC[C@]3(c4nccs4)OCOC3C2)ccc1OCC(C)(C)O (some centres unmarked) [Compound 31]	≤ 2
COc1nc(C(=O)N2CC[C@]3(c4cccc(F)c4)OCOC3C2)ccc1OC(C)C1CC(F)(F)C1 (some centres unmarked) [Compound 224]	≤ 2
O=C(c1cnc(OCCOC(F)(F)F)c(Cl)c1)N1CC[C@]2(c3ccccc3)OCOC2C1 (some centres unmarked) [Compound 295]	≤ 2
[2H]C1([2H])OC2CN(C(=O)c3ccc(OCC4CC(F)(F)C4)c(OC)c3)CC[C@]2(c2cccc(F)c2)O1 (some centres unmarked) [Compound 177]	≤ 2
Cc1nc(C(=O)N2CCC3(c4ccccc4)CC3C2)ccc1OC(C)C (centres unmarked) [Compound 134]	≤ 2
Cc1cc(C(=O)N2CC[C@@]3(c4nccs4)OCOC3C2)ccc1OCC(C)(C)F (some centres unmarked) [Compound 82]	≤ 2
COc1cc(C(=O)N2CC[C@]3(c4cccc(Cl)c4)OCOC3C2)ccc1O[C@H](C)C(F)(F)F (some centres unmarked) [Compound 243]	≤ 2
COc1cc(C(=O)N2CC[C@]3(c4ccccn4)COC[C@@H]3C2)ccc1OCCOC(F)(F)F [Compound 276]	> 5
CC(C)(O)c1ccc(C(=O)N2CCC3(c4ccccc4)CC3C2)cc1 (centres unmarked) [Compound 29]	≤ 2
COc1nc(C(=O)N2CC[C@]3(c4cccc(F)c4)OCOC3C2)ccc1OC(C)C(F)(F)C(F)F (some centres unmarked) [Compound 234]	≤ 2
COc1cc(C(=O)N2CC[C@]3(c4ccc(F)cc4)OCOC3C2)ccc1OCCOC(F)(F)F (some centres unmarked) [Compound 99]	≤ 2
COc1cc(C(=O)N2CC[C@]3(c4cc(C(F)(F)F)ccn4)OCOC3C2)ccc1OCC1CCC(F)(F)C1 (some centres unmarked) [Compound 204]	≤ 2
COc1cc(C(=O)N2CC[C@@]3(c4nccs4)OCOC3C2)ccc1OCC(C)(C)F (some centres unmarked) [Compound 6]	> 5
[2H]C1([2H])OC2CN(C(=O)c3ccc(OCCOC(F)(F)F)c(OC)c3)CC[C@]2(c2ccccc2)O1 (some centres unmarked) [Compound 302]	≤ 2
COc1cc(C(=O)N2CC[C@]3(c4cscn4)OCOC3C2)ccc1OCCOC(F)(F)F (some centres unmarked) [Compound 39]	> 5
COc1cc(C(=O)N2CC[C@]3(c4cccc(C)n4)OCOC3C2)ccc1OCCOC(F)(F)F (some centres unmarked) [Compound 154]	≤ 2
Cc1cc(C(=O)N2CC[C@]3(c4cccc(OCC(C)C)n4)OCOC3C2)ccc1OCCOC(F)(F)F (some centres unmarked) [Compound 80]	≤ 2
Cc1cc(C(=O)N2CCC3(c4ccccc4)CC3C2)ccc1C(C)(C)O (centres unmarked) [Compound 113]	≤ 2
COc1cc(C(=O)N2CC[C@@]3(c4nccs4)OCOC3C2)ccc1OCCOC(F)(F)F (some centres unmarked) [Compound 86]	≤ 2
CC(F)(F)COc1ccc(C(=O)N2CC[C@]3(c4ccccn4)OCOC3C2)cc1Cl (some centres unmarked) [Compound 106]	≤ 2
COc1nc(C(=O)N2CC[C@]3(c4cccc(F)c4F)OCOC3C2)ccc1OCC1(C(F)(F)F)CC1 (some centres unmarked) [Compound 271]	≤ 2
COc1cc(C(=O)N2CC[C@@]3(c4ccccn4)CC3C2)ccc1OCCOC(F)(F)F (some centres unmarked) [Compound 266]	≤ 2

SMILES	IC50 [µM]
[2H]C1([2H])OC2CN(C(=O)c3ccc(OCC4CC(F)(F)C4)c(OC)n3)CC[C@]2(c2cccc(F)c2)O1 (some centres unmarked) [Compound 279]	≤ 2
COc1cc(C(=O)N2CC[C@]3(c4cccc(C#N)c4)OCOC3C2)ccc1OCC1CC(F)(F)C1 (some centres unmarked) [Compound 291]	≤ 2
Cc1cc(C(=O)N2CC[C@]3(c4ccccn4)OCOC3C2)ccc1OCCOC(F)(F)F (some centres unmarked) [Compound 165]	≤ 2
CCOc1nc(C(=O)N2CC[C@]3(c4cccc(F)c4)OCOC3C2)ccc1OCCOC(F)(F)F (some centres unmarked) [Compound 249]	≤ 2
Cc1cc(C(=O)N2CCC3(c4ccc(F)cc4)CC3C2)ccc1OCC(C)(C)O (centres unmarked) [Compound 44]	≤ 2
[2H]C1([2H])OC2CN(C(=O)c3ccc(OCCOC(F)(F)F)c(C)n3)CC[C@]2(c2ccccn2)O1 (some centres unmarked) [Compound 303]	≤ 2
COc1cc(C(=O)N2CC[C@]3(c4ccccn4)OCOC3C2)ccc1COCC(F)(F)F (some centres unmarked) [Compound 50]	≤ 2
CC(C)(F)COc1ccc(C(=O)N2CC[C@@]3(c4ccccn4)CO[C@H]3C2)cc1C(F)(F)F [Compound 205]	> 5
COc1cc(C(=O)N2CCC3(c4ccccc4)CC3C2)ccc1COCC(F)(F)F (centres unmarked) [Compound 83]	≤ 2
COc1nc(C(=O)N2CCC3(c4ccccc4)CC3C2)ccc1OCCOC(F)(F)F (centres unmarked) [Compound 178]	≤ 2
COc1cc(C(=O)N2CC[C@]3(c4ccccc4)OCOC3C2)ccc1OCC(C)(C)F (some centres unmarked) [Compound 71]	≤ 2
COc1cc(C(=O)N2CCC3(c4ccccc4)CC3C2)ccc1C(C)(C)CO (centres unmarked) [Compound 115]	≤ 2
COc1cc(C(=O)N2CC[C@@]3(c4ccccc4)OCOC3C2)ccc1OCCOC(F)(F)F (some centres unmarked) [Compound 148]	≤ 2
COc1ccc(C(=O)N2CCC3(c4ccccc4)CC3C2)nc1C (centres unmarked) [Compound 14]	2 to 5
COc1cc(C(=O)N2CC[C@]3(c4cc(F)ccc4F)OCOC3C2)ccc1OCCOC(F)(F)F (some centres unmarked) [Compound 163]	≤ 2
COc1nc(C(=O)N2CC[C@]3(c4cccc(F)c4F)OCOC3C2)ccc1OCC(F)(F)C(F)F (some centres unmarked) [Compound 262]	≤ 2
[2H]C1([2H])OC2CN(C(=O)c3ccc(OCC4CC(F)(F)C4)c(OC)c3)CC[C@]2(c2cc(F)cc(F)c2)O1 (some centres unmarked) [Compound 172]	≤ 2
COc1cc(C(=O)N2CC[C@]3(c4cccc(F)c4)OCOC3C2)ccc1N(C)CC1CC(F)(F)C1 (some centres unmarked) [Compound 199]	≤ 2
COc1cc(C(=O)N2CC[C@]3(c4cccc(C(F)(F)F)n4)OCOC3C2)ccc1OC(C)C(F)(F)F (some centres unmarked) [Compound 273]	≤ 2
COc1cc(C(=O)N2CC[C@]3(c4ccccn4)OCOC3C2)cc(Cl)c1OCCOC(F)(F)F (some centres unmarked) [Compound 105]	≤ 2
Cc1cc(C(=O)N2CCC3(c4ccccc4)CC3C2)cnc1OC(C)C (centres unmarked) [Compound 18]	2 to 5
COc1nc(C(=O)N2CC[C@@]3(c4nccs4)OCOC3C2)ccc1OCCOC(F)(F)F (some centres unmarked) [Compound 126]	≤ 2
COc1nc(C(=O)N2CC[C@]3(c4cccc(Cl)c4)OCOC3C2)ccc1OCC1CC(F)(F)C1 (some centres unmarked) [Compound 175]	≤ 2
COc1nc(C(=O)N2CC[C@]3(c4cc(F)ccc4F)OCOC3C2)ccc1OCCOC(F)(F)F (some centres unmarked) [Compound 289]	≤ 2

SMILES	IC50 [µM]
O=C(c1cc2n(n1)C(C(F)(F)F)CC(C1CC1)N2)N1CCC2(c3ccccc3)CC2C1 (centres unmarked) [Compound 119]	≤ 2
O=C(c1ccc(OCC2CC(F)(F)C2)c(Cl)c1)N1CC[C@]2(c3ccccn3)OCOC2C1 (some centres unmarked) [Compound 146]	≤ 2
COc1cc(C(=O)N2CC[C@]3(c4ccccn4)OCOC3C2)ccc1OCCOC(F)(F)F (some centres unmarked) [Compound 92]	≤ 2
COc1c(F)cccc1C(=O)N1CCC2(c3ccccc3)CC2C1 (centres unmarked) [Compound 11]	> 5
COc1nc(C(=O)N2CC[C@]3(c4cc(C(F)(F)F)ccn4)OCOC3C2)ccc1OCC1CC(F)(F)C1 (some centres unmarked) [Compound 250]	≤ 2
COc1cc(Cl)nc([C@]23CCN(C(=O)c4ccc(OCCOC(F)(F)F)c(OC)c4)CC2OCO3)c1 (some centres unmarked) [Compound 221]	≤ 2
COc1nc(C(=O)N2CC[C@]3(c4ccccc4)OCOC3C2)ccc1OCC1(C(F)(F)F)CC1 (some centres unmarked) [Compound 265]	≤ 2
COc1cc(C(=O)N2CC[C@@]3(c4ccc(F)cc4)OCOC3C2)ccc1OCCOC(F)(F)F (some centres unmarked) [Compound 122]	≤ 2
O=C(c1ccc(OCCOCC(F)(F)F)c(Cl)c1)N1CC[C@]2(c3ccccn3)OCOC2C1 (some centres unmarked) [Compound 108]	≤ 2
O=C(c1cccc2c1OCC2)N1CCC2(c3ccccc3)CC2C1 (centres unmarked) [Compound 20]	2 to 5
COc1cc(C(=O)N2CC[C@]3(c4cccc(C(F)(F)F)n4)OCOC3C2)ccc1OCC1CC(F)(F)C1 (some centres unmarked) [Compound 275]	≤ 2
COc1nc(C(=O)N2CC[C@]3(c4cccc(F)c4)OCOC3C2)ccc1OCCOC(F)(F)F (some centres unmarked) [Compound 188]	≤ 2
[2H]C1([2H])OC2CN(C(=O)c3ccc(OCCOC(F)(F)F)c(C)n3)CC[C@]2(c2cc(F)cc(F)c2)O1 (some centres unmarked) [Compound 308]	≤ 2
Cc1cc(C(=O)N2CC[C@@]3(c4ccc(F)cc4)OCOC3C2)ccc1OCC(C)(C)O (some centres unmarked) [Compound 58]	≤ 2
COc1nc(C(=O)N2CC[C@]3(c4cccc(F)c4)OCOC3C2)ccc1OCC1CC=CC1 (some centres unmarked) [Compound 232]	≤ 2
CC(C)Oc1ccc(C(=O)N2CCC3(c4ccccc4)CC3C2)cc1F (centres unmarked) [Compound 16]	2 to 5
Cc1cc(C(=O)N2CC[C@]3(c4ncccc4F)OCOC3C2)ccc1OCCOC(F)(F)F (some centres unmarked) [Compound 129]	≤ 2
Cc1nc([C@]23CCN(C(=O)c4ccc(OCCOC(F)(F)F)c(Cl)c4)CC2OCO3)cs1 (some centres unmarked) [Compound 149]	≤ 2
Cc1cc(C(=O)N2CC[C@]3(c4ccccc4)OCOC3C2)ccc1OC(C)C (some centres unmarked) [Compound 77]	≤ 2
COc1cc(C(=O)N2CC[C@@]3(c4csc(C)n4)OCOC3C2)ccc1OCCOC(F)(F)F (some centres unmarked) [Compound 78]	≤ 2
COc1nc(C(=O)N2CCC3(c4ccccc4)CC3C2)ccc1OCC(C)(C)F (centres unmarked) [Compound 125]	≤ 2
COc1cccc([C@]23CCN(C(=O)c4ccc(OCCOC(F)(F)F)c(C)c4)CC2OCO3)n1 (some centres unmarked) [Compound 190]	≤ 2
COc1cc(C(=O)N2CC[C@]3(c4ncccn4)OCOC3C2)ccc1OCC(C)(C)F (some centres unmarked) [Compound 7]	> 5
